Source: ChEMBL document CHEMBL5506008, “Synthesis and biological evaluation of 1-phenyl-tetrahydro-β-carboline-based first dual PRMT5/EGFR inhibitors as potential anticancer agents” (Eur J Med Chem, 2024)
Values belong to the compound of their own block, whether it stands above or below them.

Tests used:
[1] = biological target: Epidermal growth factor receptor (Homo sapiens, UniProt P00533); test: Inhibition of wild type GST-tagged EGFR catalytic domain (unknown origin) expressed in insect cells using poly(Glu-Tyr) as substrate incubated for 6 mins by ELISA; set-up: species or system Insect cell
[2] = biological target: Protein arginine N-methyltransferase 5 (Homo sapiens, UniProt O14744); test: Inhibition of PRMT5 (unknown origin) by radiometric-based scintillation proximity assay
MCF7 = test: Antiproliferative activity against human MCF7 cells assessed as inhibition of cell growth by CCK-8 assay
MDA-MB-231 = test: Antiproliferative activity against human MDA-MB-231 cells assessed as inhibition of cell growth by CCK-8 assay
HeLa = test: Antiproliferative activity against human HeLa cells assessed as inhibition of cell growth by CCK-8 assay
A549 = test: Antiproliferative activity against human A549 cells assessed as inhibition of cell growth by CCK-8 assay
[3] = Metabolic stability in rat liver microsomes assessed as compound remaining at […] measured after 30 mins in presence of NADPH by LC-MS/MS analysis; type: ADME, Microsome; conditions: read-out: Stability
HepG2 = test: Antiproliferative activity against human HepG2 cells assessed as inhibition of cell growth by CCK-8 assay
[4] = biological target: Protein arginine N-methyltransferase 1 (Homo sapiens, UniProt Q99873); test: Inhibition of PRMT1 (unknown origin) using [3H]SAM as substrate preincubated for 15 mins followed by substrate addition and measured after 60 mins by microbeta scintillation counting analysis
[5] = Metabolic stability in human liver microsomes assessed as compound remaining at […] measured after 30 mins in presence of NADPH by LC-MS/MS analysis; type: ADME, Microsome; conditions: read-out: Stability
[6] = biological target: T1, Histone-arginine methyltransferase CARM1 (Homo sapiens, UniProt Q86X55); test: Inhibition of PRMT4 (unknown origin) preincubated for 15 mins followed by substrate addition and measured after 60 mins by AlphaLISA assay
T1 sequence (Q86X55 whole entry): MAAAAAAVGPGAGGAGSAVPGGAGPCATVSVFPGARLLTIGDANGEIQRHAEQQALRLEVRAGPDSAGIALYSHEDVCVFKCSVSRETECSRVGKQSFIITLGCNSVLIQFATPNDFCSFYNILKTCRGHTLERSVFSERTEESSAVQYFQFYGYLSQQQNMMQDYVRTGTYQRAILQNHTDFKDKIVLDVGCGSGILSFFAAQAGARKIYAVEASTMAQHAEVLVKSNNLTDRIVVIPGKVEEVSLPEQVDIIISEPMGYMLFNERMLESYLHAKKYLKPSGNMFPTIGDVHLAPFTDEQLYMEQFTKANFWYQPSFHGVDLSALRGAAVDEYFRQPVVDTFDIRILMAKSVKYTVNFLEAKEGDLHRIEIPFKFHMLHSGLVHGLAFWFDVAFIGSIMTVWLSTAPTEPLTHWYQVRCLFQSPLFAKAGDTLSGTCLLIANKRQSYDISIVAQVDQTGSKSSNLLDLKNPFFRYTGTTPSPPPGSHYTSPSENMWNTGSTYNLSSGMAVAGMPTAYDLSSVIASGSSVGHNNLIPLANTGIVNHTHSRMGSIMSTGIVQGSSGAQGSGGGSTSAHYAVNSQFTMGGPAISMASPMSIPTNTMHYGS

Sequence of Epidermal growth factor receptor (P00533 whole entry, the tested form may be a part): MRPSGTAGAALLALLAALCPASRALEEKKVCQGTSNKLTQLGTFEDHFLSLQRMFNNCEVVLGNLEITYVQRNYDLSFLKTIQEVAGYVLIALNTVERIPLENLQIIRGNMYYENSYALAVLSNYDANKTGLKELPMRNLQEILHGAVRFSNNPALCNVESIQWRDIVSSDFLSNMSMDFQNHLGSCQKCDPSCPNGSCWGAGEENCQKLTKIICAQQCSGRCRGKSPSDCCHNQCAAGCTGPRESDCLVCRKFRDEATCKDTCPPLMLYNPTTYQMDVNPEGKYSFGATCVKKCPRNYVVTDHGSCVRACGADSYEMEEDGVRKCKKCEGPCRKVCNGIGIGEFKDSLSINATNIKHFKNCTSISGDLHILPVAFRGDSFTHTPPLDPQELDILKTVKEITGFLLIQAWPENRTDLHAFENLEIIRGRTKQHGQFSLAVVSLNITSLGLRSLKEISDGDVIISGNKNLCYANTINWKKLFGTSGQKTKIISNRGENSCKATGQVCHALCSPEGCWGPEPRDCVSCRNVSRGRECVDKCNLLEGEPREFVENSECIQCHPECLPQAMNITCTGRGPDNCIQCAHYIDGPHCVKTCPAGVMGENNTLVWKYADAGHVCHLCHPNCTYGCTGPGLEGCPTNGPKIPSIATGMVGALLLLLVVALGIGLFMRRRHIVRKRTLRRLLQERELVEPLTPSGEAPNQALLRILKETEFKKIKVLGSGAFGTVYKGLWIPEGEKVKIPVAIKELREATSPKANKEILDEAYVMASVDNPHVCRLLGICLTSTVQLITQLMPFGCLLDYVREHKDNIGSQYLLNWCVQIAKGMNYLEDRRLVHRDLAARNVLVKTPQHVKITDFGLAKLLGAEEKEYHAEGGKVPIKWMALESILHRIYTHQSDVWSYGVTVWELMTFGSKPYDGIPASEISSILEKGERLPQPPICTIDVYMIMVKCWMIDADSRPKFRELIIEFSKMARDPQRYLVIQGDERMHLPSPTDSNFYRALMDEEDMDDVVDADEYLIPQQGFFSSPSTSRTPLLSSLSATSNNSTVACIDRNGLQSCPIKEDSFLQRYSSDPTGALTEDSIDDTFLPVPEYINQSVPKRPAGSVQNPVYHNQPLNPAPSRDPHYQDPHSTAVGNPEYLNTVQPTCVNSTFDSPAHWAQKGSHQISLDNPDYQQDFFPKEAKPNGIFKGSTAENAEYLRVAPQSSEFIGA
Sequence of Protein arginine N-methyltransferase 5 (O14744 whole entry): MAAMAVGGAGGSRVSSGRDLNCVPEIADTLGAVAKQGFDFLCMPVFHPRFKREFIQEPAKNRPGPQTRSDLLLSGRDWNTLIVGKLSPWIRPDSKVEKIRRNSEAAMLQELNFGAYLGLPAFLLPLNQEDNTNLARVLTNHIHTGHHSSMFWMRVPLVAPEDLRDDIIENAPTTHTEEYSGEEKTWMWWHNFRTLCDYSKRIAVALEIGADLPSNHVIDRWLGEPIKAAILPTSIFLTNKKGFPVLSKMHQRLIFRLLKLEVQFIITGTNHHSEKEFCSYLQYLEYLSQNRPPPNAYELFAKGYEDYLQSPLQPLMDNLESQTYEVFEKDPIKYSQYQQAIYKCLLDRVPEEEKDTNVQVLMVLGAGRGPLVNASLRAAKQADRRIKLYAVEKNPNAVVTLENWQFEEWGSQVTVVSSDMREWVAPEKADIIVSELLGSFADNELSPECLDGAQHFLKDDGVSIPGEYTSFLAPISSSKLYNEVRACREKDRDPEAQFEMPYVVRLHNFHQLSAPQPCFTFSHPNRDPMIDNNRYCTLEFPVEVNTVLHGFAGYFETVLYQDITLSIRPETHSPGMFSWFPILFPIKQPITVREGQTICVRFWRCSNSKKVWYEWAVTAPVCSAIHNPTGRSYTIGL
Sequence of Protein arginine N-methyltransferase 1 (Q99873 whole entry): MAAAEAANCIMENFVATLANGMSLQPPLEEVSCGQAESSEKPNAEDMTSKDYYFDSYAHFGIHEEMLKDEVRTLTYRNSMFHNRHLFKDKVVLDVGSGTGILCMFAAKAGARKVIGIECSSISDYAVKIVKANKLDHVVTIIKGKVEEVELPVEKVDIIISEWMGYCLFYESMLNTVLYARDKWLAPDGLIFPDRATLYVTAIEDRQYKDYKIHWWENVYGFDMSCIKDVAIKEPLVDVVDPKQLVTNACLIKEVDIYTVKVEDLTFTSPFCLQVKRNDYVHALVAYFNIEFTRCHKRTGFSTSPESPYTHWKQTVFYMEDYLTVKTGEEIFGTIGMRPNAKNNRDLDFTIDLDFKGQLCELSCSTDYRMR

Compound: CN1CCc2c([nH]c3ccccc23)C1c1ccc(OC(=O)c2ccccc2)cc1 (centres undefined)
IC50 [1]: > 100 µM | IC50 [2]: > 100 µM

Compound: COC(=O)c1ccc(COc2ccc(C3NCCc4c3[nH]c3ccccc43)cc2OC)cc1 (centres undefined)
IC50 [1]: 52 µM | IC50 (MCF7): 13.7 µM | IC50 (MDA-MB-231): > 50 µM | IC50 (HeLa): 13.4 µM | IC50 (A549): 18.7 µM | remaining at 0.5 h [3]: 5.2% | IC50 (HepG2): > 50 µM | IC50 [4]: > 100 µM | IC50 [2]: 21.3 µM | remaining at 0.5 h [5]: 10.3% | IC50 [6]: > 100 µM

Compound: COc1cc(C2NCCc3c2[nH]c2ccccc32)ccc1OCc1ccc(F)cc1 (centres undefined)
IC50 [1]: > 100 µM | IC50 [2]: > 100 µM

Compound: COC(=O)c1ccc(COc2ccc(C3NCCc4c3[nH]c3ccccc43)cc2OC)c(F)c1 (centres undefined)
IC50 [1]: 55.6 µM | IC50 [2]: > 100 µM

Compound: COc1cc(C2NCCc3c2[nH]c2ccccc32)ccc1OCc1ccc(F)c(C(F)(F)F)c1 (centres undefined)
IC50 [1]: > 100 µM | IC50 [2]: > 100 µM

Compound: CN1CCc2c([nH]c3ccccc23)C1c1ccc(NC(=O)c2cccc(C(F)(F)F)c2)cc1 (centres undefined)
IC50 [1]: > 100 µM | IC50 [2]: > 100 µM

Compound: COc1cc(C2NCCc3c2[nH]c2ccccc32)ccc1OCc1ccc(F)cc1Cl (centres undefined)
IC50 [1]: > 100 µM | IC50 [2]: 76.4 µM

Compound: COc1cc(COc2ccc(C3NCCc4c3[nH]c3ccccc43)cc2OC)ccc1F (centres undefined)
IC50 [1]: > 100 µM | IC50 [2]: 23.2 µM

Compound: COc1cc(C2NCCc3c2[nH]c2ccccc32)ccc1OCc1ccccc1 (centres undefined)
IC50 [1]: > 100 µM | IC50 [2]: 32.4 µM

Compound: COc1cc(C2NCCc3c2[nH]c2ccccc32)ccc1OCc1ccc(OC(F)(F)F)c(Cl)c1 (centres undefined)
IC50 [1]: 62.4 µM | IC50 (MCF7): 6.59 µM | IC50 (MDA-MB-231): 13.3 µM | IC50 (HeLa): 6.92 µM | IC50 (A549): 13.1 µM | remaining at 0.5 h [3]: 76.6% | IC50 (HepG2): 40.4 µM | IC50 [2]: 46.9 µM | remaining at 0.5 h [5]: 70%

Compound: CN1CCc2c([nH]c3ccccc23)C1c1ccc(NC(=O)c2ccc(F)c(C(F)(F)F)c2)cc1 (centres undefined)
IC50 [1]: > 100 µM | IC50 [2]: > 100 µM

Compound: COc1cc(C2NCCc3c2[nH]c2ccccc32)ccc1OCc1ccc(C(C)(C)C)cc1 (centres undefined)
IC50 [1]: 25.4 µM | IC50 (MCF7): 3.82 µM | IC50 (MDA-MB-231): 20.5 µM | IC50 (HeLa): 4.43 µM | IC50 (A549): 12.4 µM | remaining at 0.5 h [3]: 45.4% | IC50 (HepG2): 26.4 µM | IC50 [2]: 42.8 µM | remaining at 0.5 h [5]: 50.6%

Compound: COc1cc(C2c3[nH]c4ccccc4c3CCN2C)ccc1OC(=O)c1ccccc1 (centres undefined)
IC50 [1]: 87.6 µM | IC50 [2]: > 100 µM

Compound: COc1cc(C2NCCc3c2[nH]c2ccccc32)ccc1OCc1ccc(B2OC(C)(C)C(C)(C)O2)cc1 (centres undefined)
IC50 [1]: 85.8 µM | IC50 [2]: > 100 µM

Compound: COc1cc(C2NCCc3c2[nH]c2ccccc32)ccc1OCc1ccc(F)cc1Br (centres undefined)
IC50 [1]: 74.4 µM | IC50 (MCF7): 7.46 µM | IC50 (MDA-MB-231): 12.9 µM | IC50 (HeLa): 7.15 µM | IC50 (A549): 13.3 µM | remaining at 0.5 h [3]: 66.5% | IC50 (HepG2): > 50 µM | IC50 [2]: 36.8 µM | remaining at 0.5 h [5]: 61.1%

Compound: COc1cc(C2NCCc3c2[nH]c2ccccc32)ccc1OCc1ccc(F)c(Br)c1 (centres undefined)
IC50 [1]: 51.4 µM | IC50 (MCF7): 7 µM | IC50 (MDA-MB-231): > 50 µM | IC50 (HeLa): 6.86 µM | IC50 (A549): 7.08 µM | remaining at 0.5 h [3]: 57.8% | IC50 (HepG2): 36 µM | IC50 [2]: 41.3 µM | remaining at 0.5 h [5]: 65.4%

Compound: COc1cc(C2NCCc3c2[nH]c2ccccc32)ccc1OCc1ccc(C#N)cc1F (centres undefined)
IC50 [1]: 80.6 µM | IC50 (MCF7): 13.1 µM | IC50 (MDA-MB-231): 6.2 µM | IC50 (HeLa): 13.3 µM | IC50 (A549): 12.8 µM | remaining at 0.5 h [3]: 35.9% | IC50 (HepG2): > 50 µM | IC50 [2]: 70.4 µM | remaining at 0.5 h [5]: 40.6%

Compound: COc1cc(C2NCCc3c2[nH]c2ccccc32)ccc1OCc1ccc(F)c(C#N)c1 (centres undefined)
IC50 [1]: > 100 µM | IC50 [2]: > 100 µM

Compound: COc1cc(C2NCCc3c2[nH]c2ccccc32)ccc1OCc1ccccc1F (centres undefined)
IC50 [1]: > 100 µM | IC50 [2]: 55.7 µM

Compound: COc1cc(C2NCCc3c2[nH]c2ccccc32)ccc1OC(=O)c1ccccc1 (centres undefined)
IC50 [1]: 42.7 µM | remaining at 0.5 h [3]: 15.1% | IC50 [2]: 48.7 µM | remaining at 0.5 h [5]: 20.6%

The next lines start with the values.

IC50 [1]: > 100 µM | IC50 [2]: > 100 µM
Compound: CN1CCc2c([nH]c3ccccc23)C1c1ccc(NC(=O)c2ccccc2)cc1 (centres undefined)

IC50 [1]: 95.2 µM | IC50 [2]: 71.8 µM
Compound: O=C(Nc1ccc(C2NCCc3c2[nH]c2ccccc32)cc1)c1cccc(F)c1 (centres undefined)

IC50 [2]: > 100 µM
Compound: O=C(Nc1ccc(C2NCCc3c2[nH]c2ccccc32)cc1)c1ccc(F)cc1 (centres undefined)

IC50 [2]: > 100 µM
Compound: O=C(Nc1ccc(C2NCCc3c2[nH]c2ccccc32)cc1)c1cc(C(F)(F)F)cc(C(F)(F)F)c1 (centres undefined)

IC50 [2]: > 100 µM
Compound: COC(=O)c1ccc(C(=O)Nc2ccc(C3NCCc4c3[nH]c3ccccc43)cc2)cc1 (centres undefined)

IC50 [2]: > 100 µM
Compound: Cc1cccc(C(=O)Nc2ccc(C3NCCc4c3[nH]c3ccccc43)cc2)c1 (centres undefined)

IC50 [1]: > 100 µM | IC50 [2]: > 100 µM
Compound: CN1CCc2c([nH]c3ccccc23)C1c1ccc(NC(=O)c2cccc([N+](=O)[O-])c2)cc1 (centres undefined)

IC50 [1]: > 100 µM | IC50 [2]: 66.4 µM
Compound: O=C(Nc1ccc(C2NCCc3c2[nH]c2ccccc32)cc1)c1ccc(F)c(C(F)(F)F)c1 (centres undefined)

IC50 [1]: > 100 µM | IC50 [2]: > 100 µM
Compound: CN1CCc2c([nH]c3ccccc23)C1c1ccc(NC(=O)c2cccc(Cl)c2)cc1 (centres undefined)

IC50 [2]: > 100 µM
Compound: O=C(Nc1ccc(C2NCCc3c2[nH]c2ccccc32)cc1)c1ccc(C(F)(F)F)cc1 (centres undefined)

IC50 [1]: 51.5 µM | remaining at 0.5 h [3]: 12.3% | IC50 [2]: 59.7 µM | remaining at 0.5 h [5]: 16.4%
Compound: O=C(Oc1ccc(C2NCCc3c2[nH]c2ccccc32)cc1)c1ccccc1 (centres undefined)

IC50 [1]: 56.3 µM | IC50 [2]: 74.5 µM
Compound: O=C(Nc1ccc(C2NCCc3c2[nH]c2ccccc32)cc1)c1ccccc1 (centres undefined)

IC50 [2]: 46.3 µM
Compound: O=C(Nc1ccc(C2NCCc3c2[nH]c2ccccc32)cc1)c1cccc(Cl)c1 (centres undefined)

IC50 [1]: 60.3 µM | IC50 [2]: 78.9 µM
Compound: O=C(Nc1ccc(C2NCCc3c2[nH]c2ccccc32)cc1)c1cccc([N+](=O)[O-])c1 (centres undefined)

IC50 [2]: > 100 µM
Compound: O=C(Nc1ccc(C2NCCc3c2[nH]c2ccccc32)cc1)c1ccc([N+](=O)[O-])cc1 (centres undefined)

IC50 [1]: 73.7 µM | IC50 [2]: 87.3 µM
Compound: O=C(Nc1ccc(C2NCCc3c2[nH]c2ccccc32)cc1)c1cccc(C(F)(F)F)c1 (centres undefined)

IC50 [2]: > 100 µM
Compound: Cc1ccccc1C(=O)Nc1ccc(C2NCCc3c2[nH]c2ccccc32)cc1 (centres undefined)

IC50 [2]: > 100 µM
Compound: O=C(Nc1ccc(C2NCCc3c2[nH]c2ccccc32)cc1)c1ccc(Cl)cc1 (centres undefined)

IC50 [2]: > 100 µM
Compound: O=C(Nc1ccc(C2NCCc3c2[nH]c2ccccc32)cc1)c1ccccc1F (centres undefined)

IC50 [2]: > 100 µM
Compound: O=C(Nc1ccc(C2NCCc3c2[nH]c2ccccc32)cc1)c1ccc(Br)cc1 (centres undefined)

IC50 [1]: > 100 µM | IC50 [2]: > 100 µM
Compound: CN1CCc2c([nH]c3ccccc23)C1c1ccc(NC(=O)c2cccc(F)c2)cc1 (centres undefined)
